Assay results taken from the supplement of paper PMC10307832.

What was measured:
Assay in all cases: relative viability (nuclei count vs DMSO), 5 days (fraction); higher = more cells survive
[1] = tested on: NCI-H647
In short: (§1)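 Relative viability equals treated-well nuclei counts divided by vehicle-well nuclei counts. Counts came from 4× images of lung cancer cell lines grown in 1536-well plates for 5 days after pin-tool dosing on the day after seeding. Dosing used one drug alone or a fixed anchor-drug dose plus five library-drug doses (not always all listed) in √10 steps, and values are medians of duplicate plates.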

[2] = tested on: NCI-H650
In short: as §1

[3] = tested on: NCI-H727
In short: as §1

[4] = tested on: NCI-H2347
In short: as §1

[5] = tested on: NCI-H2126
In short: as §1

[6] = tested on: NCI-H1793
In short: as §1

[7] = tested on: NCI-H520
In short: as §1

[8] = tested on: NCI-H460
In short: as §1

[9] = tested on: HOP-62
In short: as §1

[10] = tested on: HCC-44
In short: as §1

[11] = tested on: NCI-H2023
In short: as §1

[12] = tested on: NCI-H2405
In short: as §1

[13] = tested on: EPLC-272H
In short: as §1

[14] = tested on: SW 1573
In short: as §1

[15] = tested on: NCI-H2009
In short: as §1

[16] = tested on: NCI-H1437
In short: as §1

[17] = tested on: LOU-NH91
In short: as §1

[18] = tested on: EMC-BAC-2
In short: as §1

[19] = tested on: NCI-H441
In short: as §1

## COCC1(CO)C(=O)C2CCN1CC2 (stereo unspecified) [PRIMA-1MET] + C[C@]1(O)C[C@@H](c2nc(-c3ccc4ccc(-c5ccccc5)nc4c3)c3c(N)nccn32)C1 [Linsitinib] (partner 1 µM)
[1]; first compound 0.2 µM
  relative viability: 1.42
[1]; first compound 0.6325 µM
  relative viability: 1.16
[1]; first compound 2 µM
  relative viability: 1.18
[1]; first compound 6.325 µM
  relative viability: 1.42
[1]; first compound 20 µM
  relative viability: 1.18
[2]; first compound 0.2 µM
  relative viability: 1.13
[2]; first compound 2 µM
  relative viability: 0.859
[2]; first compound 6.325 µM
  relative viability: 0.674
[2]; first compound 20 µM
  relative viability: 0.107
[3]; first compound 0.2 µM
  relative viability: 0.386
[3]; first compound 0.6325 µM
  relative viability: 0.247
[3]; first compound 2 µM
  relative viability: 0.301
[3]; first compound 6.325 µM
  relative viability: 0.356
[3]; first compound 20 µM
  relative viability: 0.169
[4]; first compound 0.2 µM
  relative viability: 1.02
[4]; first compound 0.6325 µM
  relative viability: 0.847
[4]; first compound 2 µM
  relative viability: 0.697
[4]; first compound 6.325 µM
  relative viability: 0.995
[4]; first compound 20 µM
  relative viability: 0.934
[5]; first compound 0.2 µM
  relative viability: 0.726
[5]; first compound 0.6325 µM
  relative viability: 0.692
[5]; first compound 2 µM
  relative viability: 0.636
[5]; first compound 6.325 µM
  relative viability: 0.732
[5]; first compound 20 µM
  relative viability: 0.67
[6]; first compound 0.2 µM
  relative viability: 0.878
[6]; first compound 0.6325 µM
  relative viability: 0.777
[6]; first compound 6.325 µM
  relative viability: 1.04
[6]; first compound 20 µM
  relative viability: 0.581
[7]; first compound 0.2 µM
  relative viability: 1.05
[7]; first compound 0.6325 µM
  relative viability: 1
[7]; first compound 6.325 µM
  relative viability: 0.869
[7]; first compound 20 µM
  relative viability: 0.0887
[8]; first compound 0.2 µM
  relative viability: 1.08
[8]; first compound 0.6325 µM
  relative viability: 0.545
[8]; first compound 2 µM
  relative viability: 0.613
[8]; first compound 6.325 µM
  relative viability: 0.0073
[8]; first compound 20 µM
  relative viability: 0.0038
[9]; first compound 0.2 µM
  relative viability: 1.08
[9]; first compound 0.6325 µM
  relative viability: 0.976
[9]; first compound 2 µM
  relative viability: 0.9
[9]; first compound 6.325 µM
  relative viability: 0.987
[9]; first compound 20 µM
  relative viability: 0.746
[10]; first compound 0.2 µM
  relative viability: 0.746
[10]; first compound 0.6325 µM
  relative viability: 0.528
[10]; first compound 2 µM
  relative viability: 0.673
[10]; first compound 6.325 µM
  relative viability: 0.706
[10]; first compound 20 µM
  relative viability: 0.625
[11]; first compound 0.2 µM
  relative viability: 0.784
[11]; first compound 0.6325 µM
  relative viability: 0.65
[11]; first compound 2 µM
  relative viability: 0.7
[11]; first compound 6.325 µM
  relative viability: 0.668
[11]; first compound 20 µM
  relative viability: 0.609
[12]; first compound 0.2 µM
  relative viability: 0.635
[12]; first compound 0.6325 µM
  relative viability: 1.01
[12]; first compound 6.325 µM
  relative viability: 0.727
[12]; first compound 20 µM
  relative viability: 0.0877
[13]; first compound 0.2 µM
  relative viability: 1.26
[13]; first compound 0.6325 µM
  relative viability: 1.01
[13]; first compound 2 µM
  relative viability: 1.06
[13]; first compound 6.325 µM
  relative viability: 1.2
[13]; first compound 20 µM
  relative viability: 0.973
[14]; first compound 0.2 µM
  relative viability: 0.779
[14]; first compound 0.6325 µM
  relative viability: 0.796
[14]; first compound 2 µM
  relative viability: 0.875
[14]; first compound 6.325 µM
  relative viability: 0.456
[14]; first compound 20 µM
  relative viability: 0.0414
[15]; first compound 0.2 µM
  relative viability: 1.17
[15]; first compound 0.6325 µM
  relative viability: 1.09
[15]; first compound 2 µM
  relative viability: 1.22
[15]; first compound 6.325 µM
  relative viability: 1.16
[15]; first compound 20 µM
  relative viability: 0.693
[16]; first compound 0.2 µM
  relative viability: 1.08
[16]; first compound 0.6325 µM
  relative viability: 0.982
[16]; first compound 2 µM
  relative viability: 1.02
[16]; first compound 6.325 µM
  relative viability: 1.1
[16]; first compound 20 µM
  relative viability: 0.753
[17]; first compound 0.2 µM
  relative viability: 1.02
[17]; first compound 0.6325 µM
  relative viability: 0.771
[17]; first compound 2 µM
  relative viability: 0.773
[17]; first compound 6.325 µM
  relative viability: 1.01
[17]; first compound 20 µM
  relative viability: 0.582
[18]; first compound 0.2 µM
  relative viability: 0.843
[18]; first compound 0.6325 µM
  relative viability: 0.822
[18]; first compound 2 µM
  relative viability: 0.784
[18]; first compound 6.325 µM
  relative viability: 0.821
[18]; first compound 20 µM
  relative viability: 0.817
[19]; first compound 0.2 µM
  relative viability: 0.556
[19]; first compound 0.6325 µM
  relative viability: 0.517
[19]; first compound 2 µM
  relative viability: 0.458
[19]; first compound 6.325 µM
  relative viability: 0.524
[19]; first compound 20 µM
  relative viability: 0.24
